Source: US20240317708A1, “INHIBITORS OF TRANSGLUTAMINASES” (ZEDIRA GMBH, priority 2021, published 2024)

Legend:
[1] = Log D shake flask method (octanol / PBS pH 7.4, HPLC); type: physicochemical; conditions: octanol/phosphate-buffered saline (PBS); octanol / PBS pH 7.4, shake flask
Method: In order to classify the inventive compounds according to their lipophilicity, Log D values (distribution coefficient) were determined by means of the well-established shake flask method, measuring the partition of a compound between an octanol and phosphate-buffered saline (PBS, pH 7.4) by HPLC.

[2] = target: T1, recombinant human transglutaminase 2 (Homo sapiens, UniProt P21980); assay: Transglutaminase assay (dansylcadaverine incorporation into dimethylcasein, DCC-assay); type: biochemical; conditions: recombinant human TG2 10 nM, dansylcadaverine/dimethylcasein, 37° C.
T1 construct: purchased Zedira T022
T1 sequence (P21980 1-687): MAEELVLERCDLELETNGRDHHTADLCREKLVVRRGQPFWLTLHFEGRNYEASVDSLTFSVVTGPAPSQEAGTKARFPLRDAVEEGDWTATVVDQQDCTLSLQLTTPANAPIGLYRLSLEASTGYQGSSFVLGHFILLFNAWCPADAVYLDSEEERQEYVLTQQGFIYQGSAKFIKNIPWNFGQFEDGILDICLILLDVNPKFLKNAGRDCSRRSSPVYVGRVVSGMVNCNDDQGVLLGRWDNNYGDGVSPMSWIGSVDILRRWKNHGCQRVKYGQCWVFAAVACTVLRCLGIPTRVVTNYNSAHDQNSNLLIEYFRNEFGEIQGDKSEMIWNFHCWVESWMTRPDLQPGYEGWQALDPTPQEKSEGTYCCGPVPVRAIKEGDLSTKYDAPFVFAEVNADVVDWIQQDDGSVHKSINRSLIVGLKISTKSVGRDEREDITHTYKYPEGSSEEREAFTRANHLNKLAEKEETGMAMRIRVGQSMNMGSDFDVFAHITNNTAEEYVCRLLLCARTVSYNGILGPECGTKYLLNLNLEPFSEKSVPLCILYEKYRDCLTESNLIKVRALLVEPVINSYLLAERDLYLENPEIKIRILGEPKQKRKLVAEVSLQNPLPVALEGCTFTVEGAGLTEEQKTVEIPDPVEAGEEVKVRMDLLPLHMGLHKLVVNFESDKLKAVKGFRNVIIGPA
In short: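 IC50 derived from fluorescence slope between 20 and 30 min (λex 330 nm, λem 500 nm, 37 °C), expressed relative to a 2% DMSO control. Reaction: 10 nM recombinant human TG2, 4 μM dimethylcasein, 16.7 μM dansylcadaverine, 10 mM CaCl2 and glutathione, pH 8.0.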

[3] = Caco-2 permeability assay (CacoReady kit); type: in vitro ADME; conditions: human
In short: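 Compounds are tested on pre-formed Caco-2 barriers supplied as a ready-to-use kit, following the kit protocol, and the Papp value is derived to estimate intestinal absorption.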

Row | Compound | logD [1] | IC50 [2] | Papp [3]
1 | CC(=O)/C=C/CC[C@H](NC(=O)c1ncn(C)n1)C(=O)Nc1cccn(CC(=O)NC2C3CCCC2CC3)c1=O (stereo partly drawn) [III-159, N-((2S,E)-1-(1-(2-(bicyclo[3.2.1]octan-8-ylamino)-2-oxoethyl)-2-oxo-1,2-dihydropyridin-3-ylamino)-1,7-dioxooct-5-en-2-yl)-1-methyl-1H-1,2,4-triazole-3-carboxamide] | < 1 | 250 to 1500 nM | < 1 ×10⁻⁶ cm/s
2 | COC(=O)/C=C/CC[C@H](NC(=O)c1oc2ccccc2c1C)C(=O)Nc1cccn(CC23CC4CC(CC(O)(C4)C2)C3)c1=O [III-80, (6S,E)-methyl 7-(1-((3-hydroxy-1-adamantyl)methyl)-2-oxo-1,2-dihydropyridin-3-ylamino)-6-(3-methylbenzofuran-2-carboxamido)-7-oxohept-2-enoate] | 1 to 3 | 250 to 1500 nM | < 1 ×10⁻⁶ cm/s
3 | COC(=O)/C=C/CC[C@H](NC(=O)c1oc2ccccc2c1C)C(=O)Nc1cccn(CC23CC4CC(CC(Br)(C4)C2)C3)c1=O [III-81, (6S, E)-methyl 7-(1-((3-bromo-1-adamantyl)methyl)-2-oxo-1,2-dihydropyridin-3-ylamino)-6-(3-methylbenzofuran-2-carboxamido)-7-oxohept-2-enoate] | 3 to 5 | 250 to 1500 nM | 1 to 10 ×10⁻⁶ cm/s
4 | COC(=O)/C=C/CC[C@H](NC(=O)c1snnc1C=O)C(=O)Nc1cccn(CC(=O)NC2(C(=O)O)C3CC4CC2CC(C(F)(F)F)(C4)C3)c1=O (stereo partly drawn) [III-174, (S,E)-methyl 6-(4-formyl-1,2,3-thiadiazole-5-carboxamido)-7-(1-(2-(2-carboxy-2-amino-5-(trifluoromethyl)adamantane)-2-oxoethyl)-2-oxo-1,2-dihydropyridin-3-ylamino)-7-oxohept-2-enoate] | 1 to 3 | 250 to 1500 nM | < 1 ×10⁻⁶ cm/s
5 | O=C(/C=C/CC[C@H](NC(=O)c1ccc2c(c1)NCCC2)C(=O)Nc1cccn(CC(=O)NC23CC(C2)C3)c1=O)NC1CCCCC1 [III-149, (S,E)-N7-(1-(2-(bicyclo[1.1.1]pentan-1-ylamino)-2-oxoethyl)-2-oxo-1,2-dihydropyridin-3-yl)-N1-cyclohexyl-6-(1,2,3,4-tetrahydroquinoline-7-carboxamido)hept-2-enediamide] | 1 to 3 | 250 to 1500 nM | < 1 ×10⁻⁶ cm/s
6 | COC(=O)/C=C/CC[C@H](NC(=O)c1oc2ccccc2c1C)C(=O)Nc1cccn(CC(=O)NC2(C(=O)OC)C3CC4CC(C3)CC2C4)c1=O (stereo partly drawn) [III-44, (S,E)-methyl 7-(1-(2-(2-methyladamantane-2-carboxylate-2-amino)-2-oxoethyl)-2-oxo-1,2-dihydropyridin-3-ylamino)-6-(3-methylbenzofuran-2-carboxamido)-7-oxohept-2-enoate] | 3 to 5 | 25 to 250 nM | < 1 ×10⁻⁶ cm/s

Other lines, results leading:

Row | logD [1] | IC50 [2] | Papp [3] | Compound
7 | 3 to 5 | 25 to 250 nM | < 1 ×10⁻⁶ cm/s | COC(=O)/C=C/CC[C@H](NC(=O)[C@@H]1CCCNC1)C(=O)Nc1cccn(CC(=O)NC2C3CC4CC(C3)CC2C4)c1=O (stereo partly drawn) [III-30, (S,E)-methyl 7-(1-(2-(2-adamantylamino)-2-oxoethyl)-2-oxo-1,2-dihydropyridin-3-ylamino)-7-oxo-6-((R)-piperidine-3-carboxamido)hept-2-enoate]
8 | 1 to 3 | < 25 nM | < 1 ×10⁻⁶ cm/s | COC(=O)/C=C/CC[C@H](NC(=O)c1cnnn1C)C(=O)Nc1cccn(CC(=O)NC23CC4CC(C)(CC(C)(C4)C2)C3)c1=O [III-114, (S,E)-methyl 7-(1-(2-(3,5-dimethyladamantane-1-amino)-2-oxoethyl)-2-oxo-1,2-dihydropyridin-3-ylamino)-6-(1-methyl-1H-1,2,3-triazole-5-carboxamido)-7-oxohept-2-enoate]
9 | < 1 | < 25 nM | < 1 ×10⁻⁶ cm/s | COC(=O)/C=C/CC[C@H](NC(=O)c1ccnn1C)C(=O)Nc1cccn(CC(=O)NC2C3CC4CC(C3)CC2C4)c1=O (stereo partly drawn) [III-119, (S,E)-methyl 7-(1-(2-(2-adamantylamino)-2-oxoethyl)-2-oxo-1,2-dihydropyridin-3-ylamino)-6-(1-methyl-1H-pyrazole-5-carboxamido)-7-oxohept-2-enoate]
